In general, Ki refers to the equilibrium dissociation constant of an inhibitor or competing ligand from its target. Higher therefore signals a looser hold on the target.

The target of test [1] is T1, Sfβgly (GH1 β-glucosidase from Spodoptera frugiperda) (Spodoptera frugiperda, UniProt O61594).
T1 construct: recombinant, E. coli BL21(DE3), vector pET46, Ni-NTA purified; secreted digestive midgut enzyme; catalytic residues E187 and E399
Put plainly: initial-rate kinetics, Lineweaver-Burk and secondary plots, p-nitrophenolate release. It is filed as biochemical. From the text:
initial-rate kinetics, Lineweaver-Burk and secondary plots, p-nitrophenolate release on Sfβgly (GH1 β-glucosidase from Spodoptera frugiperda)

The target of test [2] is T1, Sfβgly (GH1 β-glucosidase from Spodoptera frugiperda). Put plainly: initial-rate kinetics, Lineweaver-Burk plots, p-nitrophenolate release. The test is classed as biochemical. The conditions noted are these: competitive; also a substrate; substrate p-nitrophenyl β-glucoside; 100 mM phosphate pH 6.0, 30 °C.

T1 sequence (O61594 21-509): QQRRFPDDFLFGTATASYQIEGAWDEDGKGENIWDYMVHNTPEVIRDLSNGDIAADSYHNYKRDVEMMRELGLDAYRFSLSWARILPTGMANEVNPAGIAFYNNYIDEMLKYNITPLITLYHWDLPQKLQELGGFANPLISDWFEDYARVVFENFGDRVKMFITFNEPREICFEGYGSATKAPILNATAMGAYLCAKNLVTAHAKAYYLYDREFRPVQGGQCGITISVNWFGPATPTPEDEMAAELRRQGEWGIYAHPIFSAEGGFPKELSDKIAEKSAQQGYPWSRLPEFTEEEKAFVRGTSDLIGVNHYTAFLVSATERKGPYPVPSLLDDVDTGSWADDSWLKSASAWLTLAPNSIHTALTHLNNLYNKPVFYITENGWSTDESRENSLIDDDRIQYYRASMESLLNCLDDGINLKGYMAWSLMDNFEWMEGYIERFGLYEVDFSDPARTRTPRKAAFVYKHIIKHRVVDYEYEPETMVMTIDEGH

In test [1], `c1c[nH]cn1` [imidazole] yielded an inhibition constant (Ki) of 15.3 ± 0.3 mM.
For the compound `OC[C@H]1O[C@@H](O[C@H]2[C@H](O)[C@@H](O)C(O)O[C@@H]2CO)[C@H](O)[C@@H](O)[C@@H]1O` (some centres unmarked) [C2, cellobiose], in test [2], the affinity corresponds to a Ki of 10 mM.

The record behind these values is article PMC10153361, “Mechanism of imidazole inhibition of a GH1 β‐glucosidase” (FEBS Open Bio, 2023).
